Assay results published in US8552013B2, “Heterocyclic compounds based on N6-substituted adenine, methods of their preparation, their use for preparation of drugs, cosmetic preparations and growth regulators, pharmaceutical preparations, cosmetic preparations and growth regulators containing these compounds” (USTAV Experimentalni Botaniky Akademie Ved Ceske Republiky, priority 2001, dated 2013).
“And” between values parts separate entries of the source, which are not always exact repeats. Equal entries are not always repeated. Where two headings read alike, the source gives them in different places.

Experiments:
[1] = system: senescent human skin fibroblasts; test: Numbers of surviving senescent cells (Coulter counter); type: cell-based; settings: 7 to 14 days of treatment
Procedure: Equal numbers of senescent cells were seeded in separate flasks and were treated with different concentrations of para-topolin. Cell numbers were determined by using a Coulter counter after trpsinization and resuspension of cells after 7 and 14 days of treatment.
Equal numbers of senescent cells were seeded in separate flasks and were treated with different concentrations of ortho-topolin. Cell numbers were determined by using a Coulter counter after trypsinisation and resuspension of cells, after 7 and 14 days of treatment.

human skin fibroblasts [2] = test: Series of experiments on short-term effects on human skin fibroblasts, conclusion; type: cell-based; settings: para at a dose of 40 μM
Procedure: All experiments were performed on early and mid passage cultures (about 20 to 40% lifespan completed) of normal human adult skin fibroblast line; designated ASF-2 & Senetek cell line (about 10-90% lifespan completed); designated as SF20. In order to check the effects of test compounds on senescent cells, late passage cells with more than 95% lifespan completed were used. ASF-2 and SF20 cell lines were established from a mammary skin biopsy obtained from a young, non-smoking and healthy […] at the time of breast reduction operation. Normal culture conditions of medium (DMEM) containing antibiotics, 10% foetal calf serum, and incubation at 37° C. with 95% humidity were used. The effects of the test chemicals were determined in the following conditions:
The experiments were performed to determine the effects of short-term treatment of ortho-topolin, meta-topolin, and para-topolin on cell attachment, survival, growth, apoptosis, actin cytoskeletal pattern, lysosomal activity, proteasomal activity and morphology of human skin fibroblasts in culture.

[3] = system: human diploid fibroblasts (HCA cells); test: Senescence, beta-galactosidase staining of human diploid fibroblasts; type: cell-based; settings: for SENESCENT CELLS (%) HCA25: passage 25; for SENESCENT CELLS (%) HCA45: passage 45; for SENESCENT CELLS (%) HCA80: passage 80
Outline: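 HCA fibroblasts at passages 25, 45 and 80 were fixed for 5 min at room temperature in 2% formaldehyde/0.2% glutaraldehyde. They were then incubated at 37 °C without CO2 for 1 to 16 hours with X-gal 1 mg/ml, 5 mM ferri- and ferrocyanide and 2 mM MgCl2 in citric/phosphate buffer, pH 6.0. Blue-stained cells were scored.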

[4] = system: senescent human skin fibroblasts; test: Actin staining of senescent cells (FITC-Phalloidin); type: cell-based; settings: after 3 days; meta 40 μM
Excerpt: Actin staining: The pattern of cytoskeletal actin staining was studied by staining the cells with florescent ligand FITC-labelled Phalloidin, using a fluorescence microscope

[5] = system: lysosomes of fibroblast cells; test: Lysosomal activity, neutral red uptake; type: cell-based, human; settings: pre-treated fibroblasts
Procedure: Neutral Red is preferentially taken up into the lysosomes of the cell. Fibroblast cells are maintained in culture and exposed to test compounds over a range of concentrations. The cultures are visually examined after 72 hours, and the number of viable cells and/or the total cell protein content determined, after 72 hours exposure, by the Neutral Red Uptake method. Advantage of Neutral Red assay is that it detects only viable cells. Any chemical having a localized effect upon the lysosomes will, therefore, result in an artificially low (or possibly high) reflection of cell viability and cell number. This factor does, however, make the system useful to detect those compounds which selectively affect the lysosomes, especially when it is used in conjunction with other tests capable of determining cell number.
The NR assay has been applied to evaluation and ranking the cytotoxicity of a spectrum of compounds. Individual wells of a 96-well tissue culture microtiter plate were inoculated with 0.2 ml of the appropriate media containing cells (usually 3×10^3 cells). After 1 to 2 days of incubation, the media were removed and replaced with unamended (control) medium or with medium amended with varied concentrations of the compound to be tested. After 3 days of exposure to the compound, media were removed and replaced with media containing 0.001% NR. The assay plate was then returned to the incubator for another 3 h to allow for uptake of the supravital dye into the lysosomes of viable cells. Thereafter, the media were removed and the cells were rapidly washed with 0.5% formaldehyde-1% CaCl2 followed by 0.2 ml of a solution of 1% acetic acid-50% ethanol to extract the dye from the cells. After 10 min at room temperature and a brief but rapid agitation on a microtiter plate shaker, the plates were transferred to a microplate spectrophotometer equipped with a 540-nm filter to measure the absorbance of the extracted dye.
The toxicities of the various compounds were compared with those of the control cultures by computing the data obtained.

human skin fibroblasts [6] = test: Apoptosis assay in treated skin fibroblasts; type: cell-based; settings: 3 days of treatment; ortho 200 μM
G-361 = test: Calcein AM cytotoxicity, G-361; type: cell-based; settings: read-out: IC 50, G-361
K-562 = test: Calcein AM cytotoxicity, K-562; type: cell-based; settings: read-out: IC 50, K-562
Outline: (§1)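 Cells in DMEM with 10% FCS, pre-incubated 24 h, then exposed to six 4-fold compound dilutions in duplicate for 72 h at 37 °C, 5% CO2. Viability read by Calcein AM fluorescence after 1 h further incubation.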

[7] = system: T-lymphoblastic leukemia cell line CEM; test: Calcein AM cytotoxicity, CEM; type: cell-based, human
Outline: as §1

SMILES	SENESCENT CELLS (%) HCA25 [3] [%]	SENESCENT CELLS (%) HCA45 [3] [%]	SENESCENT CELLS (%) HCA80 [3] [%]	IC50 (G-361; Homo sapiens, G-361, 72 hours) [µM]	IC50 (K-562; Homo sapiens, K562, 72 h) [µM]	IC50 ([7]; Homo sapiens, 72 h) [µM]	further results
Oc1ccccc1CNc1ncnc2nc[nH]c12 [ortho-topolin, 6-(2-hydroxybenzylamino)purine]	3	4	17				numbers of surviving senescent cells [1]: reduces the number of surviving senescent cells significantly; conclusion on short-term effects on human skin fibroblasts (human skin fibroblasts [2]): little or no beneficial effects; actin staining pattern in senescent cells [4]: no obvious differences; Cleaning up of cytoplasmic debris (macro-molecular turn-over rate), summary [5]: No such effective removal was observed; apoptosis assay (human skin fibroblasts [6]): some induction of apoptosis
Ic1cccc(CNc2ncnc3nc[nH]c23)c1 [6-(3-iodobenzylamino)purine]				> 167	94.7	125	
Cc1ccc(CNc2ncnc3nc[nH]c23)cc1 [6-(4-methylbenzylamino)purine]				160	72.8	72.1	
Oc1cccc(CNc2ncnc3nc[nH]c23)c1 [meta-topolin, 6-(3-hydroxybenzylamino)purine]	5	3	22				numbers of surviving senescent cells [1]: reduces the number of surviving senescent cells in a dose dependent manner; conclusion on short-term effects on human skin fibroblasts (human skin fibroblasts [2]): little or no beneficial effects; actin staining pattern in senescent cells [4]: depolymerised actin filaments to some extent; IC50 (K-562; 72 hours, listed as MT): 140 µM; Cleaning up of cytoplasmic debris (macro-molecular turn-over rate), summary [5]: No such effective removal was observed; apoptosis assay (human skin fibroblasts [6]): cell death at 40 μM and above
Cc1ccccc1CNc1ncnc2nc[nH]c12 [6-(2-methylbenzylamino)purine]				> 167	157	> 167	
Fc1cccc(CNc2ncnc3nc[nH]c23)c1 [6-(3-fluorobenzylamino)purine]	3	3	15				
Fc1ccccc1CNc1ncnc2nc[nH]c12 [6-(2-fluorobenzylamino)purine]	4	3	16				IC50 (G-361; 72 hours): 106 µM; IC50 (K-562; 72 hours): 136 µM and 70.7 µM; IC50 ([7]; 72 hours, listed as 2F BAP): 136 µM and 98.9 µM
